Patent publication US20070134261A1, “Effectors of innate immunity” (priority 2001, published 2007)
Converted amounts (≈) assume the structure as drawn. Where two headings read alike, the source gives them in different places. Residues, ends and D or L forms follow the SMILES beside them.

Assays:
[1] = type: cell-based
S. aureus = assay: Murine S. aureus infection model (CD-1 mice); type: in vivo, mouse; conditions: peptide 200 μg IP; for CFU/ml (blood): 3 days, No Peptide 7.61 ± 1.7 × 10^3; for # Mice Survived (3 days)/Total mice in group: No Peptide 6/8
Method: (§1) BALB/c mice were given 1×10^5 Salmonella and cationic peptide (200 μg) by intraperitoneal injection. The mice were monitored for 24 hours at which point they were euthanized, the spleen removed, homogenized and resuspended in PBS and plated on Luria Broth agar plates with Kanamycin (50 μg/ml). The plates were incubated overnight at 37° C. and counted for viable bacteria (Table 49 and 50). CD-1 mice were given 1×10^8 S. aureus in 5% porcine mucin and cationic peptide (200 μg) by intraperitoneal injection (Table 51). The mice were monitored for 3 days at which point they were euthanized, blood removed and plated for viable counts. CD-1 male mice were given 5.8×10^6 CFU EHEC bacteria and cationic peptide (200 μg) by intraperitoneal (IP) injection and monitored for 3 days (Table 52). […] Many of the cationic peptides were shown not to be directly antimicrobial as tested by the Minimum Inhibitory Concentration (MIC) assay (Table 54).

CD-1 mice = assay: Lethal endotoxemia in galactosamine-sensitized CD-1 mice; type: in vivo; conditions: 2 μg LPS; peptide 200 μg/mouse = 8 mg/kg IP 15 min after LPS; 48 hours; control 0
[2] = test system: human bronchial epithelial cells (HBE); assay: LDH release assay (Cytotoxicity Detection Kit); type: cell-based; conditions: 100 μg/ml, 24 hours; no peptide control 1.0 ± 0.05
Procedure, shortened: (§2)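 Both read-outs were colorimetric at OD490 on HBE cells after 24 h with 100 μg of each peptide. The WST-1 assay reported viability through mitochondrial dehydrogenase cleavage of the tetrazolium salt. The LDH assay tested the removed supernatant for enzyme leaked from membrane-damaged cells.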

[3] = test system: RAW 264.7 mouse macrophage cells; type: cell-based; conditions: Peptide 20 μg/ml; 100 ng/ml E. coli 0111:B4 LPS, 6 h
HBE cells = assay: WST-1 assay (cell viability); type: cell-based, human
Procedure, shortened: as §2

[4] = test system: A549 human epithelial cells; assay: Induction of chemokines (IL-8, MCP-1) in A549 cells (ELISA); type: cell-based; conditions: peptide 10 ug/ml, 24 hr
Method: The murine macrophage cell line RAW 264.7, THP-1 cells (human monocytes), a human epithelial cell line (A549), human bronchial epithelial cells (16HBEo14), and whole human blood were used. HBE cells were grown in MEM with Earle's. THP-1 cells were grown and maintained in RPMI 1640 medium. The RAW and A549 cell lines were maintained in DMEM supplemented with 10% fetal calf serum. […] DMEM was aspirated from cells grown overnight and replaced with fresh medium. After incubation of the cells with peptide, the release of chemokines into the culture supernatant was determined by ELISA (R&D Systems, Minneapolis, Minn.).

BALB/c mice = assay: Lethal endotoxemia in galactosamine-sensitized BALB/c mice; type: in vivo; conditions: 2 μg LPS; peptide 200 μg/mouse = 8 mg/kg IP 15 min after LPS; 48 hours; no peptide 10
Salmonella = Salmonella infection in BALB/c mice (viable bacteria in spleen); type: in vivo, mouse; conditions: Table 49; peptide 200 μg IP, 24 h; Control 2.70 ± […] 10^5
Method: as §1

CSCC[C@H](NC(=O)[C@H](CO)NC(=O)[C@@H](NC(=O)[C@H](CCCCN)NC(=O)[C@H](Cc1ccccc1)NC(=O)[C@H](CS)NC(=O)[C@H](CO)NC(=O)[C@H](CCCNC(=N)N)NC(=O)[C@@H](N)CCCCN)C(C)C)C(=O)N[C@@H](CCCNC(=N)N)C(=O)NCC(=O)N[C@H](C(=O)N[C@@H](CO)C(=O)N[C@@H](CCCNC(=N)N)C(=O)N[C@@H](CCCNC(=N)N)C(=O)N[C@@H](CCCNC(=N)N)C(=O)N[C@@H](CS)C(=O)N[C@@H](CCCCN)C(=O)O)C(C)C [SEQ ID NO: 27] (H-KRSCFKVSMRGVSRRRCK-OH; N-terminus and C-terminus assumed)
MIC, C. rhod. ([1]; 24 h): 2 µg/mL (≈ 0.915 µM) | MIC, E. coli ([1]; 24 h): 8 µg/mL (≈ 3.66 µM) | MIC, EHEC ([1]; 24 h): 4 µg/mL (≈ 1.83 µM) | MIC, P. aerug. ([1]; 24 h): 64 µg/mL (≈ 29.3 µM) | MIC, S. aureus ([1]; 24 h): 64 µg/mL (≈ 29.3 µM) | MIC, S. typhim. ([1]; 24 h): 16 µg/mL (≈ 7.32 µM) | CFU/ml (blood) (S. aureus): 2.25 ± 0.1 × 10^2 CFU/ml | # Mice Survived (3 days)/Total mice in group (S. aureus): 3/4 | Survival (CD-1 mice): 20% | LDH Release (OD490 nm) [2]: 0.91 ± 0.04 OD490 nm | Inhibition of TNF-α [3]: 51.1 ± 2.8% | OD490 nm (WST-1 cell viability) (HBE cells; 100 μg/ml, 24 hours, no peptide control 1.63 ± 0.16): 1.63 ± 0.03 OD490 nm | IL-8 [4]: 0.346 ng/mL | Survival (BALB/c mice): 50% | Viable Bacteria in the Spleen (Salmonella): 1.01 ± 0.26 × 10^5 CFU/ml

CC[C@H](C)[C@H](N)C(=O)N[C@@H](CC(C)C)C(=O)N1CCC[C@H]1C(=O)N[C@@H](Cc1c[nH]c2ccccc12)C(=O)N[C@@H](CCCCN)C(=O)N[C@@H](Cc1c[nH]c2ccccc12)C(=O)N1CCC[C@H]1C(=O)N[C@@H](Cc1c[nH]c2ccccc12)C(=O)N[C@@H](Cc1c[nH]c2ccccc12)C(=O)N1CCC[C@H]1C(=O)N[C@@H](Cc1c[nH]c2ccccc12)C(=O)N[C@@H](CCCNC(=N)N)C(=O)N[C@@H](CCCNC(=N)N)C(N)=O [SEQ ID NO: 2]
MIC, C. rhod. ([1]; 24 h): 64 µg/mL (≈ 33.6 µM) | MIC, E. coli ([1]; 24 h): 4 µg/mL (≈ 2.1 µM) | MIC, P. aerug. ([1]; 24 h): 32 µg/mL (≈ 16.8 µM) | MIC, S. aureus ([1]; 24 h): 16 µg/mL (≈ 8.39 µM) | MIC, S. typhim. ([1]; 24 h): 16 µg/mL (≈ 8.39 µM)

CC[C@H](C)[C@H](NC(=O)[C@@H]1CCCN1C(=O)[C@H](CS)NC(=O)[C@H](CCCNC(=N)N)NC(=O)[C@@H](N)CC(C)C)C(=O)N[C@@H](C)C(=O)N1CCC[C@H]1C(=O)N[C@H](C(=O)N[C@H](C(=O)N1CCC[C@H]1C(=O)N[C@H](C(=O)N[C@@H](CS)C(=O)N[C@@H](CCCCN)C(=O)N[C@@H](CCCCN)C(=O)O)C(C)C)[C@@H](C)CC)C(C)C [SEQ ID NO: 6] (H-LRCPIAPVIPVCKK-OH; N-terminus and C-terminus assumed)
MIC, C. rhod. ([1]; 24 h): 64 µg/mL (≈ 41.6 µM) | MIC, E. coli ([1]; 24 h): 128 µg/mL (≈ 83.3 µM) | MIC, EHEC ([1]; 24 h): 64 µg/mL (≈ 41.6 µM) | MIC, S. typhim. ([1]; 24 h): 128 µg/mL (≈ 83.3 µM) | MIC, S. aureus ([1]; Staphylococcus aureus, overnight, 96-well plate): > | CFU/ml (blood) (S. aureus): 1.98 ± 0.05 × 10^2 CFU/ml | # Mice Survived (3 days)/Total mice in group (S. aureus): 3/4 | Survival (CD-1 mice): 40% | LDH Release (OD490 nm) [2]: 0.97 ± 0.02 OD490 nm | Inhibition of TNF-α [3]: 59.8 ± 1.2% | OD490 nm (WST-1 cell viability) (HBE cells): 1.81 ± 0.05 OD490 nm | IL-8 [4]: 0.181 ng/mL | Survival (BALB/c mice): 17% | Viable Bacteria in the Spleen (Salmonella): 2.57 ± 0.72 × 10^4 CFU/ml
